Data on one compound can be found in publication PMC10327353 (Breast Cancer Research : BCR, 2023).

Bounds are passed on as bounds.

The subject of data set [1] is BT474C1-Luci Mono1 SC xenograft. The data set can be described thus: SC (subcutaneous) BT474C1-Luci Mono1 xenograft model. It is filed as in vivo, nude mice. The procedure: Tumor cell suspension at 5 × 10^6 were injected subcutaneously in a total volume of 0.2 ml (1:1 with ECM Gel) into each mouse. 17β-ESTRADIOL (90-day release, 0.36 mg/pellet) were implanted 24 hrs before cells were injected subcutaneously. Tumor nodules were measured in two dimensions with caliper and the tumor volume was calculated using the following formula: tumor volume = (length × width^2) × 0.5. Tumor-bearing mice were randomized into different treatment groups when the mean tumor volume reached around 150 mm^3.

Another data set has as its target HER2 (Homo sapiens, UniProt P04626). The data set can be described thus: In vitro HER2 enzymatic assay (Lance Ultra Kinase Assay). More on the design: purchased Thermo Fisher PR4918A. Conditions: recombinant HER2, 2 mM ATP; read-out: IC50 against HER2 in the enzymatic assay. It is filed as biochemical. The procedure:
Recombinant HER2 was purchased from Thermo Fisher (Cat. # PR4918A). The inhibition potency of compounds against HER2 enzyme was assessed using Lance Ultra Kinase Assay.
In brief, recombinant kinases were pre-incubated in the presence or absence of the compound at room temperature for 30 minutes. The reaction was initiated by the addition of the ATP and substrate peptide. After 60 minutes of incubation, the reaction was stopped by the addition of the detection reagent mix containing EDTA. The fluorescence was measured at 615 nm and 665 nm, respectively, with excitation wavelength at 320 nm. The calculated signal ratio of 665 nm/615 nm is proportional to the kinase activity.

In a further data set the target is T1, BCRP (Homo sapiens, UniProt Q9UNQ0).
T1 construct: endogenous in cells; host or cells: Caco-2
The experiment in a line: BCRP efflux ratio, bi-directional transport assay. It counts as in vitro ADME.

Data set [2] is described as follows: In vivo CNS-PK study in rat. Conditions: female, Wistar Han, brain and CSF (relative to unbound plasma/blood), single PO dose of DZD1516 30 mg/kg. The procedure: The ability of DZD1516 and DZ2678 to cross the BBB in female Wistar Han rat and female Cynomolgus monkey was studied by assessing the free brain-to-plasma ratio (Kp,uu,brain) and CSF-to-free plasma ratio (Kp,uu,CSF). Total brain-to-blood ratio (Kp,brain) and CSF-to-blood ratio (Kp,CSF) were measured from six time points after oral administration. Free fractions of DZD1516 and DZ2678 in the biological matrix were determined by in vitro plasma and brain binding assay.
Kp,brain= AUCbrain/AUCblood. Kp,CSF was the average of the CSF-to-blood ratios at the evaluated time points. Kp,uu,brain= Kp,brain× fu,brain/fu,blood; Kpuu,CSF= Kp,CSF/fu,blood.
In total, twenty-one female Wistar Han rats were administered with a single PO dose of DZD1516 at 30 mg/kg. The PO dosing formulation was a suspension in 0.5% HPMC E5 in water (w/v). Plasma, brain, and CSF samples were collected at 0.5, 1, 2, 4, 8, 24, and 30 hrs post-dose. The concentrations of DZD1516 and metabolite DZ2678 in plasma, brain, and CSF samples from the rats, as well as in plasma and CSF samples from the monkeys, were determined by the validated LC-MS/MS method.

For another data set, the system named is A431 cells. The data set can be described thus: Cell proliferation assay (CellTiter-Glo), A431. It is filed as cell-based. The settings on record: Homo sapiens, A-431; A431, 72 hrs. The procedure:
BT474C1-Luci Mono1 cells were seeded in 384-well plates at 1500 cells/well in DMEM medium containing 10% FBS and 1 mM Oxaloacetic acid (OAA). A431 cells were seeded in 384-well plates at 1,000 cells/well in DMEM medium containing 10% FBS. After overnight incubation, cells were treated with compounds at various concentrations for 3 days. Then cell viability was measured using a CellTiter-Glo Luminescent Cell Viability Assay from Promega Corp. according to the manufacturer's instructions.
A general note: ATP-based viability assays read luminescence as a measure of living cells.

The next data set deals with T2, Fms(h) (Homo sapiens, UniProt P07333).
T2 construct: purchased Eurofins UK Ltd (Dundee, UK)
The data set can be described thus: Kinase panel assay (Eurofins). It is filed as biochemical. As to the method: (§1) In vitro profiling of the 121-recombinant kinase panel was performed at Eurofins UK Ltd (Dundee, UK). In brief, recombinant kinases were incubated within an appropriate buffer containing peptide substrate and radiolabelled γ-^33P-ATP together with the presence or absence of the required compound concentration. The reaction was initiated by adding ATP/Mg^2+ mix. After incubation for 40 minutes at room temperature, the reaction was stopped by adding 3% phosphoric acid solution. A portion of the reaction mix was spotted onto P30 filtermat to trap peptide and washed three times for 5 minutes with phosphoric acid to remove non-specific γ-^33P-ATP. The substrate phosphorylation was then measured by scintillation counting, which determined the level of kinase activity inhibition compared to control reactions. Percentage inhibition data for each kinase was mapped to the kinome tree (www.kinhub.org).

The target of a further data set is T3, EGFR(T790M,L858R)(h) (Homo sapiens, UniProt P00533, L858R/T790M).
T3 construct: purchased Eurofins UK Ltd (Dundee, UK)
The data set can be described thus: Kinase panel assay (Eurofins). It counts as biochemical. As to the method:
as §1

For another data set, the target named is T4, Blk(h) (Homo sapiens, UniProt P51451).
T4 construct: purchased Eurofins UK Ltd (Dundee, UK)
The experiment in a line: Kinase panel assay (Eurofins). It is filed as biochemical. As to the method: as §1

In a further data set the target is T5, Lck(h) (Homo sapiens, UniProt P06239).
T5 construct: purchased Eurofins UK Ltd (Dundee, UK)
The experiment in a line: Kinase panel assay (Eurofins). It counts as biochemical. As to the method: as §1

A further data set deals with T6, TrkA(h) (Homo sapiens, UniProt P04629).
T6 construct: purchased Eurofins UK Ltd (Dundee, UK)
The experiment in a line: Kinase panel assay (Eurofins). It counts as biochemical. The procedure: as §1

Another data set addresses T7, Lck(h) activated (Homo sapiens, UniProt P06239).
T7 construct: purchased Eurofins UK Ltd (Dundee, UK)
The data set can be described thus: Kinase panel assay (Eurofins). It is filed as biochemical. The procedure:
as §1

A further data set has as its target T8, HER2(h) (Homo sapiens, UniProt P04626).
T8 construct: purchased Eurofins UK Ltd (Dundee, UK)
The experiment in a line: Kinase panel assay (Eurofins). It counts as biochemical. As to the method:
as §1

The target in a further data set is T9, EGFR(h) (Homo sapiens, UniProt P00533).
T9 construct: purchased Eurofins UK Ltd (Dundee, UK)
The data set can be described thus: Kinase panel assay (Eurofins). It counts as biochemical. As to the method: as §1

Another data set addresses T10, Met(h) (Homo sapiens, UniProt P08581).
T10 construct: purchased Eurofins UK Ltd (Dundee, UK)
The data set can be described thus: Kinase panel assay (Eurofins). It counts as biochemical. The procedure: as §1

The target of another data set is T11, c-RAF(h) (Homo sapiens, UniProt P04049).
T11 construct: purchased Eurofins UK Ltd (Dundee, UK)
The experiment in a line: Kinase panel assay (Eurofins). It is filed as biochemical. The procedure:
as §1

A further data set deals with T12, ErbB4(h) (Homo sapiens, UniProt Q15303).
T12 construct: purchased Eurofins UK Ltd (Dundee, UK)
The data set can be described thus: Kinase panel assay (Eurofins). It is filed as biochemical. As to the method: as §1

The next data set concerns the target T13, Lyn(h) (Homo sapiens, UniProt P07948).
T13 construct: purchased Eurofins UK Ltd (Dundee, UK)
The experiment in a line: Kinase panel assay (Eurofins). It counts as biochemical. As to the method: as §1

T1 sequence (Q9UNQ0 whole entry): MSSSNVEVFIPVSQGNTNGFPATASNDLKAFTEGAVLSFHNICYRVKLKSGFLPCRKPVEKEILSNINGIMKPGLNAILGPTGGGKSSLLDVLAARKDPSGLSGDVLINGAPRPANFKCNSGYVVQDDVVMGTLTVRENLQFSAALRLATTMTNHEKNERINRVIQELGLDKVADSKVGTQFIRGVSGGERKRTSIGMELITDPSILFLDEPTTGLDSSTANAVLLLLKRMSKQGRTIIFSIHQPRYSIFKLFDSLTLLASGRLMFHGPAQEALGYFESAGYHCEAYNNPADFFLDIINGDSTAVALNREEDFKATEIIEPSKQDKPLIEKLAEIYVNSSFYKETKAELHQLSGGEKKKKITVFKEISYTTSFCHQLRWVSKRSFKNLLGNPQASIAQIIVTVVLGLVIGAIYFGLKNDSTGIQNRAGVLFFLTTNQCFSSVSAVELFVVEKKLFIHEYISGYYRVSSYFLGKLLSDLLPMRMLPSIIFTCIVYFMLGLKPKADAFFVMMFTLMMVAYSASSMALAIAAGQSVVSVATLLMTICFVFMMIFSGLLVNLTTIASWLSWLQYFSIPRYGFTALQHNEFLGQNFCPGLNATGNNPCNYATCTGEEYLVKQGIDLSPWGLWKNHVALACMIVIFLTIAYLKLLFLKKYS
T4 sequence (P51451 whole entry): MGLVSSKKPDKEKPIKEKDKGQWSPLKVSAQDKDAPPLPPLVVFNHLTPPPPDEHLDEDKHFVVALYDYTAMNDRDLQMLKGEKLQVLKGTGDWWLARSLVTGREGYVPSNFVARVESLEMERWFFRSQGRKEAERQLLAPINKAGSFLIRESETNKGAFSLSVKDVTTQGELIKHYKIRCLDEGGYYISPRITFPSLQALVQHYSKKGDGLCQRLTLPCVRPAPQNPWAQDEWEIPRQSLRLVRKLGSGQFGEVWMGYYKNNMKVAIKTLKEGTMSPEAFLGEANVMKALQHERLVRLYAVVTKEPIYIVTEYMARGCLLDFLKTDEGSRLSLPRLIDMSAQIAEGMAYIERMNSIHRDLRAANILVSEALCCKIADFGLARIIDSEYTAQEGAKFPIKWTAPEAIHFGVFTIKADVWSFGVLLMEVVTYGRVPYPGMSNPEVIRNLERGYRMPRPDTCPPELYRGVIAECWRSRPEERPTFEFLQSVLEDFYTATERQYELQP
T10 sequence (P08581 25-1390): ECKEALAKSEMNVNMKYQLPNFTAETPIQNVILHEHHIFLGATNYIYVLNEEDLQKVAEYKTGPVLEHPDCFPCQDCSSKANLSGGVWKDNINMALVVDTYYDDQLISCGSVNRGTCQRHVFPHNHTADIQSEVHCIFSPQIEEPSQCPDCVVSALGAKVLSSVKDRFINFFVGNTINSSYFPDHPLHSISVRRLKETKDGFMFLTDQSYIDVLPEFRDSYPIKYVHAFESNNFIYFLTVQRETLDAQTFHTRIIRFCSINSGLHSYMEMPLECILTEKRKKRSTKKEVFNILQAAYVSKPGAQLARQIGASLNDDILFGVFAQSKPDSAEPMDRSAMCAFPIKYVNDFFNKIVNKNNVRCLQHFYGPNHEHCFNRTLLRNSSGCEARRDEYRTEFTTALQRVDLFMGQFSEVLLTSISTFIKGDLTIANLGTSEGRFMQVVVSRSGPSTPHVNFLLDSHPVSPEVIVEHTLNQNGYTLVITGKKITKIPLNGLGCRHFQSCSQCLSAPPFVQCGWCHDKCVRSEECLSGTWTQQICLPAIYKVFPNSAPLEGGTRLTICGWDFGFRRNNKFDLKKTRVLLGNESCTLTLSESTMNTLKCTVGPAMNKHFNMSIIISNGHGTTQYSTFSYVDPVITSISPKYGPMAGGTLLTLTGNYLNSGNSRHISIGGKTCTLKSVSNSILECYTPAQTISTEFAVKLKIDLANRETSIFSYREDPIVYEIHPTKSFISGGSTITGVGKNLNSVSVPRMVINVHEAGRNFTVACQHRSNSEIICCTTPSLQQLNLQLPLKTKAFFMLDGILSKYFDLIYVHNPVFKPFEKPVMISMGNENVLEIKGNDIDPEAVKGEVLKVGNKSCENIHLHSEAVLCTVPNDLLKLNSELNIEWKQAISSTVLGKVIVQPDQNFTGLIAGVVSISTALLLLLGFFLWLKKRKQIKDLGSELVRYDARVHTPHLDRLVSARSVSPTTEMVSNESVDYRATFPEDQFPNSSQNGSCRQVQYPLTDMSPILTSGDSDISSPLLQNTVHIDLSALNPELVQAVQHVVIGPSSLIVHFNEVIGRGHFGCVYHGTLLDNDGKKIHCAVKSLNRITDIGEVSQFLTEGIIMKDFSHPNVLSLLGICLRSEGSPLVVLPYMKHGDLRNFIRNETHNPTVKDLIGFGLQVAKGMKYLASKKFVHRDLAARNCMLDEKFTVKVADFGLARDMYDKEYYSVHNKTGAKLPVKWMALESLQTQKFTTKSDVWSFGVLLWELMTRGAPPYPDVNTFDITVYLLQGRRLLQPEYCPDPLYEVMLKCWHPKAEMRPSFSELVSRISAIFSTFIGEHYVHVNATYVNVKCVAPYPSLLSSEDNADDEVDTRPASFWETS
T9 sequence (P00533 25-1210): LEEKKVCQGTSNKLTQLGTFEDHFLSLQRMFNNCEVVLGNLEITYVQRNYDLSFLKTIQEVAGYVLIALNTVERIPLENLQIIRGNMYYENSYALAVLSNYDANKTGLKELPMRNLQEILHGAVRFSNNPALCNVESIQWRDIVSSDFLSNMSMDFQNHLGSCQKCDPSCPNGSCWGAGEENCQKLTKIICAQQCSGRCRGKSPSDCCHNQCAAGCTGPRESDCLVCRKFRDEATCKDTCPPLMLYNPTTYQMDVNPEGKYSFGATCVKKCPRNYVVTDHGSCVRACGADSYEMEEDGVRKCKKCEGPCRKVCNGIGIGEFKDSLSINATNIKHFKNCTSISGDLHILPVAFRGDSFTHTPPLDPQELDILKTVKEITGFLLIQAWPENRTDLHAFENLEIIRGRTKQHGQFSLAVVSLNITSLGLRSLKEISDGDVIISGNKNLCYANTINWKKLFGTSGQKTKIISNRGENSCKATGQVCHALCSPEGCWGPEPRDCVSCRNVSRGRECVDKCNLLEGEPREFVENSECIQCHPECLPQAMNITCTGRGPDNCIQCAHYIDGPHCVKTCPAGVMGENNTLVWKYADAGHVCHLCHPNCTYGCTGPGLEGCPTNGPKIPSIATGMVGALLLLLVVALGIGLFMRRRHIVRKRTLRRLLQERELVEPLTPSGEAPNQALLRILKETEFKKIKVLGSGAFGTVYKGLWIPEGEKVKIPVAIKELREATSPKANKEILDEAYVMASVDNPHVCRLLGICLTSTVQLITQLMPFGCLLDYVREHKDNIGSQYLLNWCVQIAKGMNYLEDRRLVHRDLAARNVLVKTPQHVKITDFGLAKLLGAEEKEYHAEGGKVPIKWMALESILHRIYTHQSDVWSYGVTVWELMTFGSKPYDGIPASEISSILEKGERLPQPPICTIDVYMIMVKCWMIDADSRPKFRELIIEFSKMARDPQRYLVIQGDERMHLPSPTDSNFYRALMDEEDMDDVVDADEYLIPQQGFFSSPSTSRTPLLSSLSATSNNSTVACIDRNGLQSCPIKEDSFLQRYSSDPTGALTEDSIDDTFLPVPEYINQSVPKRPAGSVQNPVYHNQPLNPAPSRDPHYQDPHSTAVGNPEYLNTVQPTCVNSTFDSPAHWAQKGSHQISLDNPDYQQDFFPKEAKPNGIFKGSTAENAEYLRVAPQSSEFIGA
T2 sequence (P07333 20-972): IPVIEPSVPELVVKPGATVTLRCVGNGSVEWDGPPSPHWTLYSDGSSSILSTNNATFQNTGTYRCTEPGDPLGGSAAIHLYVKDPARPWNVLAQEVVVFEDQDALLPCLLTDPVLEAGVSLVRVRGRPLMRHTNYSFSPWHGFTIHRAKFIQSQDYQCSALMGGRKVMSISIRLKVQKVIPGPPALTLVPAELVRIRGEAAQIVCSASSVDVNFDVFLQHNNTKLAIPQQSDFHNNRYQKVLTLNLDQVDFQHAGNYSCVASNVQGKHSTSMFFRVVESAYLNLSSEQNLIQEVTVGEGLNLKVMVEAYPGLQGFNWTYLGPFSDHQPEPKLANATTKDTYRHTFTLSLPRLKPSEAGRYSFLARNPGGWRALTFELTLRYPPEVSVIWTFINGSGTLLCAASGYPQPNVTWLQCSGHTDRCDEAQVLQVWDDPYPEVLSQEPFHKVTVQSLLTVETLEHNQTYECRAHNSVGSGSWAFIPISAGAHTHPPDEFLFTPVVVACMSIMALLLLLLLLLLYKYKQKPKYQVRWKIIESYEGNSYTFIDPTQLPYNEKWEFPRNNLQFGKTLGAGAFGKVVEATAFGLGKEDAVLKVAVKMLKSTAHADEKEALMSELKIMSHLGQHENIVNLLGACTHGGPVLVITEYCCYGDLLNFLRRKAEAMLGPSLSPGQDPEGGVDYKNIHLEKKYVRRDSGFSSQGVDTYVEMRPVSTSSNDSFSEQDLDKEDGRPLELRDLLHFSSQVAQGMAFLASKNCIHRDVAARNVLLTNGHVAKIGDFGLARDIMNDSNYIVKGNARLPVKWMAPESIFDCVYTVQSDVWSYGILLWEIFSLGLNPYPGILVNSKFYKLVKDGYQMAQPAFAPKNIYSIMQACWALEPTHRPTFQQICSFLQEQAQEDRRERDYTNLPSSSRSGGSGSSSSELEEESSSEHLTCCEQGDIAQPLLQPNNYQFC

In general, IC50 refers to the midpoint of a concentration-inhibition curve. Usually efflux ratio stands for the permeability from basolateral to apical divided by that in the opposite direction, in the common usage. Broadly, the GI50 is the concentration at which growth is held to half of that of the control. Read a low GI50 as greater sensitivity of the cells. Consider `COc1cc(O[C@H]2CCN(C)CC2(F)F)c2c(Nc3ccc(Oc4ccn5ncnc5c4)c(C)c3)ncnc2c1` [DZD1516], for which the antitumor efficacy entry is “tumor remission was achieved” in [1] (100 mg/kg or 150 mg/kg twice daily) and “tumor shrinkage or complete tumor remission” in data set [1] (monotherapy 50 mg/kg (data not shown)). For the same compound, the IC50 at HER2 worked out at 0.56 nM; against Fms(h), 1070 nM; against EGFR(T790M,L858R)(h), 244 nM; against Blk(h), 2670 nM; on Lck(h), 433 nM; on TrkA(h) it was 1290 nM. In addition, the IC50 worked out at 180 nM against Lck(h) activated; 16 nM against HER2(h); 92 nM against EGFR(h); 1090 nM at Met(h); 1040 nM against c-RAF(h); 52 nM on ErbB4(h). Moreover, inhibition at Lyn(h) was half-maximal at 2300 nM (IC50). For the same compound, at BCRP (1 µM, listed as Cpd-5), the “Efflux ratio BCRP @1 µM” value amounted to 1.3. The efflux ratio at 120 min, 1 µM at BCRP (human, Caco-2, pH 7.4, 1 µM) is below 2. In data set [2], this compound registered a Kp uu of 0.57 to 0.87. In the data set with A431 cells, this compound gave a GI50 of 8870 nM.
